Reference: patent publication US7547439B1, “Tumor rejection antigens” (Ludwig Institute for Cancer Research, priority 1998, dated 2009)
Entries after “also recorded” stand apart in the source; their conditions may differ.

System: LB1751-EBV cells
Assay: Chromium release assay: lysis by CTL 447A/5 of peptide-sensitised LB1751-EBV cells
Type: cell-based, human
Conditions: for Lysis by CTL 447A/5 of peptide-pulsed LB1751-EBV cells pre-treated with anti-HLA-A2 mAb MA2.1: MA2.1 (1/5 dilution of hybridoma supernatant) during 51Cr-labeling, E/T 20, 4 h; for Lysis by CTL 447A/5 of LB1751-EBV cells incubated with peptide: peptide concentration as high as 10 μM
Experimental: FIG. 4. […] (A) LB1751-EBV cells pulsed with peptides derived from MAGE-A10. Chiromium-labelled autologous EBV-transformed lymphoblastoid cells LB1751-EBV were pulsed for 30 min with peptides as indicated at various concentrations before addition of CTL 447A/5 at an E/T ratio of 20. Chromium release was measured after 4 h. (B) Enhancement by mAb MA2.1 of lysis of LB1751-EBV cells pulsed with MAGE-A10 peptides. LB1751-EBV cells were pre-treated with or without anti-HLA-A2 antibody MA2.1. The pre-treatment was performed by adding mAb MA2.1 during ^51Cr-labeling. Peptide sensitisation and chromium release assay were carried out as in (A).
FIG. 5. […] LB1751-EBVcells were pre-treated with or without anti-HLA-A2 antibody MA2. 1. Ab treatment and peptide sensitisation of the cells and chromium release assay were carried out as in FIG. 4.
In the amino acid sequence corresponding to the nucleotides 547-825 there are two nonapeptides, […] (codons 183-191 in the ORF) (SEQ. ID. NO. 46) and […] (254-262) (SEQ. ID. NO. 42), which conform to the HLA-A2.1 peptide binding motif, i.e., a nona- or decapeptide with Leu or Met at position 2 and Leu, Val or Ile at its C-terminus (Rammensee, H. G., et al., 1995, Immunogenetics, 41:178-228). These two peptides and their overlapping decapeptides were synthesised on solid phase using F-moc for transient NH2-terminal protection and characterised by mass spectrometry. The peptides were >90% pure, as indicated by analytical HPLC, and used to sensitise autologous lymphoblastoid cell line LB1751-EBV in a chromium release assay as described in (Boon, T., et al., 1980, J. Exp. Med 152:1184-1193) but modified as follows. The target cells were ^51Cr-labeled for 1 h at 37° C. and then washed extensively. 1,000 target cells were then incubated in 96-well microplates in the presence of various concentrations of peptides for 30 min at 37° C. and CTLs were added at an E/T ratio of 20. Chromium release was measured after 4 h at 37° C.
Enhancement of peptide binding to the HLA-A2 molecule was achieved by incubation of target cells during ^51Cr-labeling with a ⅕ dilution of hybridoma culture supernatant of mAb MA2.1 (McMichael, A. J., et al., 1980, Hum. Immunol. 1:121-129; and Bodmer, H., et al., 1989, Nature 342:443-446).
This peptide and its overlapping decapeptide […] (codons 232-241) (SEQ. ID. NO. 45) were synthesised by the technique described above. LB1751-EVB cells incubated with either of the peptides, at a concentration of as high as 10 μM peptide, were not lysed by CTL 447A/5. […] Enhancement of peptide binding to the HLA-A2 molecule was achieved by incubation of target cells during ^51Cr-labeling with a ⅕ dilution of hybridoma culture supernatant of mAb MA2.1 (McMichael, A. J., et al., 1980, Hum. Immunol. 1: 121-129; and Bodmer, H., et al., 1989, Nature 342.443-446).

[1] = cells pulsed 30 min with peptide at various concentrations, E/T ratio 20, chromium release after 4 h, no mAb MA2.1

| Sequence | Lysis by CTL 447A/5 of peptide-pulsed LB1751-EBV cells pre-treated with anti-HLA-A2 mAb MA2.1 | Sensitisation of LB1751-EBV cells to lysis by CTL 447A/5 [1] | Sensitisation of LB1751-EBV cells to lysis by CTL 447A/5 (peptide concentration 100 μM) | Lysis by CTL 447A/5 of LB1751-EBV cells incubated with peptide |
| --- | --- | --- | --- | --- |
| CMLLVFGIDV (listed as Homo sapiens) [decapeptide from MAGE-A10 (182-191)] | failed to confer recognition | failed to confer recognition |  |  |
| GLYDGMEHL (listed as Homo sapiens) [nonapeptide encoded by MAGE-A10 (codons 254-262), presented by HLA-A2] | significantly increased sensitivity to lysis | could sensitise LB1751-EBV cells to lysis; also recorded: recognises |  |  |
| GLYDGMEHLI (listed as Homo sapiens) [decapeptide encoded by MAGE-A10 (254-263)] | significantly increased sensitivity to lysis | less efficiently |  |  |
| GLYDGREHS (listed as Homo sapiens) [nonapeptide encoded by MAGE-A8 (codons 232-240)] | enhancement of lysis |  | did sensitise LB1751-EBV cells to lysis | not lysed |
| GLYDGREHSV (listed as Homo sapiens) [decapeptide encoded by MAGE-A8 (codons 232-241)] | not |  |  | not lysed |
| MLLVFGIDV [nonapeptide from MAGE-A10 (codons 183-191)] | failed to confer recognition | failed to confer recognition |  |  |
